# Measured values reported in US20210213176A1, “CHEMICAL VAPOR DEPOSITION OF POLYMER COATINGS FOR CONTROLLED DRUG RELEASE, ASSEMBLIES CONTAINING SAME, AND METHODS OF PRODUCTION AND USE THEREOF” (The Board of Regents for the Oklahoma Agricultural and …, priority 2020, published 2021).
# Legend:
# [1] = test system: human smooth muscle cells; settings: 2.5 μM atorvastatin in medium (Dubuis et al., 2013); cited from earlier work
# [2] = test system: smooth muscle cells; settings: atorvastatin concentration as low as 0.1 μM (Petersen et al., 2013; Baetta et al., 1997); cited from earlier work
# [3] = test system: Human coronary artery smooth muscle cells (HCASMC); assay: MTT cell metabolism assay on nanocoated devices; settings: PDE31 coated, dose densities up to 100 μg/cm^2
compound,measurement,setting,value
"CC(C)c1c(C(=O)Nc2ccccc2)c(-c2ccccc2)c(-c2ccc(F)cc2)n1CC[C@@H](O)C[C@@H](O)CC(=O)[O-].CC(C)c1c(C(=O)Nc2ccccc2)c(-c2ccccc2)c(-c2ccc(F)cc2)n1CC[C@@H](O)C[C@@H](O)CC(=O)[O-].[Ca+2] [atorvastatin, Atorvastatin calcium]",viability of human smooth muscle cells,[1],does not suppress the viability
same,growth of smooth muscle cells,[2],effective in suppressing the growth
same,MTT activity of HCASMC with atorvastatin release,[3],no significant difference
